Measured values: ChEMBL document CHEMBL1201862, “PubChem BioAssay data set” (2004)
The source made the active and inactive calls.

What was measured:
[1] = molecular target: Dual specificity tyrosine-phosphorylation-regulated kinase 1A (Rattus norvegicus, UniProt Q63470); assay type: biochemical, Homo sapiens
Escherichia coli = assay: microbe, parasite or virus in culture
Cytochrome P450 1A2 = molecular target: T1, Cytochrome P450 1A2 (Homo sapiens, UniProt P05177);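 also: PubChem cytochrome P450 panel assay, CYP1A2 panel member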
T1 sequence (P05177 whole entry): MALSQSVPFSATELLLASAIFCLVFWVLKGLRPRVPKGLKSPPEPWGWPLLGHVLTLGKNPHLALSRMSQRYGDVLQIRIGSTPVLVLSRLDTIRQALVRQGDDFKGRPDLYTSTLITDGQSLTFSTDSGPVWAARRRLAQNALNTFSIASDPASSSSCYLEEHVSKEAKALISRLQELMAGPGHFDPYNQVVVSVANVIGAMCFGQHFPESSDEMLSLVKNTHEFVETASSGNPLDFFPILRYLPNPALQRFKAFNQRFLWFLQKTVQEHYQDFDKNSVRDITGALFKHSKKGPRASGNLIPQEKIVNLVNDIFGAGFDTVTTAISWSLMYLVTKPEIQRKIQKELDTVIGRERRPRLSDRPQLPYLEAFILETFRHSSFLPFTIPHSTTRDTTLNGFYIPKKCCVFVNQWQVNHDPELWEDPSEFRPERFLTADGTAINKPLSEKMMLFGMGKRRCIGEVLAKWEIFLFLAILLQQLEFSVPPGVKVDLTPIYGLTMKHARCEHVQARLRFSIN

Cytochrome P450 3A4 = Cytochrome P450 3A4 (Homo sapiens, UniProt P08684);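 also: CYP3A4 tested as one member of a cytochrome P450 panel screen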
Cytochrome P450 2C9 = Cytochrome P450 2C9 (Homo sapiens, UniProt P11712)
Phospholipase A2 = Phospholipase A2 (Homo sapiens, UniProt P04054); assay type: functional;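 also: confirmatory dose-response counterscreen on phospholipase A2, testing hits that came from an ultra-high-throughput screen for ATG4B inhibitors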
Cysteine protease ATG4B = molecular target: T2, Cysteine protease ATG4B (Homo sapiens, UniProt Q9Y4P1); assay type: functional;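 also: Fluorescence-based dose-response confirmation assay measuring inhibition of ATG4B activity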
T2 sequence (Q9Y4P1 whole entry): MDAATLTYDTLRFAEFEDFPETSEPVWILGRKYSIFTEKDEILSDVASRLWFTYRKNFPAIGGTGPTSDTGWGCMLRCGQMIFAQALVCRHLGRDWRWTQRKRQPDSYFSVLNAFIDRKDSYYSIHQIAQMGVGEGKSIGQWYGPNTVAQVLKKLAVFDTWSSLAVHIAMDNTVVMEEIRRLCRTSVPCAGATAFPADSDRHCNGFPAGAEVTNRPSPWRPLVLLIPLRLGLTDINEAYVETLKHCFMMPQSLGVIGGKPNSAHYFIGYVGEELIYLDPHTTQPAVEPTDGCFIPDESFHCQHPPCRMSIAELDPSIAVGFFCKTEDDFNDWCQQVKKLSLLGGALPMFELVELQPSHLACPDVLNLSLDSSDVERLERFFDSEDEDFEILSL

Cytochrome P450 2C19 = Cytochrome P450 2C19 (Homo sapiens, UniProt P33261); assay: Cytochrome panel assay with activity outcomes. Panel member name: p450-cyp2c19 Compounds with AC50 equal or less than 10 uM are considered active; assay type: functional
Streptokinase A = molecular target: T3, Streptokinase A (Streptococcus pyogenes serotype M1, UniProt P10520); assay: viability-normalized secreted streptokinase activity reduction – plasminogen activation absorbance, OD405, dose response (AID 1914); assay type: functional, Streptococcus pyogenes M1 GAS;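 also: secreted streptokinase activity via plasminogen activation per viability signal from cell pellet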
T3 sequence (P10520 whole entry): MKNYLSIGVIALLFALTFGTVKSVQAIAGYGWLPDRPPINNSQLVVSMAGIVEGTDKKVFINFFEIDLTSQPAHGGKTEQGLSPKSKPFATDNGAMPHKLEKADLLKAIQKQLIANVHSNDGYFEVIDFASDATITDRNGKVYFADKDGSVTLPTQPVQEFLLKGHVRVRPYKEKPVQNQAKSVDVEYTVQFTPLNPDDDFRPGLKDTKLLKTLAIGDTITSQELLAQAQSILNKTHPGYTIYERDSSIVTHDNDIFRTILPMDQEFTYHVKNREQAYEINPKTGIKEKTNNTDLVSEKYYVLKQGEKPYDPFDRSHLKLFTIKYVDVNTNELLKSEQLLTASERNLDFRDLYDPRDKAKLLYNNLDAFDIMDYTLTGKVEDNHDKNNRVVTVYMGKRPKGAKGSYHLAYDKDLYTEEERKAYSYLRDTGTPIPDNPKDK

[2] = test system: Streptococcus sp. 'group A'; assay: Streptococcus pyogenes SK(-)GAS viability under kanamycin – luminescence, BacTiterGlo, confirmation, counter-screen for streptokinase expression inhibitor project, dose response (AID 1900); assay type: functional, organism-based
Streptococcus = assay: GAS UMAA2166 growth inhibition – luminescence, BacTiterGlo, counter-screen for streptokinase expression inhibitor project, dose response (AID 1915); assay type: functional, organism-based;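 also: potency for reduction of bacterial viability or growth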
[3] = HEK-293T viability loss after treatment – luminescence, T-cell screen hits, cytotoxicity control for TCR NF-kB inhibitor project, dose response (AID 489026); assay type: functional, cell-based;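 also: cells exposed to compound about 14 hours before the viability readout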
[4] = Luminescence Cell-Based Dose Response HTS to Identify Activators of Luciferase Translation or Activity in H4 […] Cells. [Related pubchem assays: 1829 (Project Summary), 1814 (Primary HTS)]; assay type: functional
[5] = Luminescence Cell-Based Dose Confirmation HTS to Identify Activators of 5'UTR Stem-Loop Driven Alpha-Synuclein mRNA Translation in H4 Neuroglioblastoma Cells. [Related pubchem assays: 1829 (Project Summary), 1814 (Primary HTS)]; assay type: functional
[6] = molecular target: T4, Heat shock factor protein 1 (Mus musculus, UniProt P38532); assay: decrease of HSF1-responsive luciferase luminescence – cell-based, NIH3T3, dose retest, confirmation (AID 2382); assay type: functional;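 also: NIH3T3 fibroblasts with HSF1-driven luciferase reporter stressed by proteasome inhibitor MG132; luminescence from HSF1-driven luciferase expression after 8 hours of MG132 stress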
T4 sequence (P38532 whole entry): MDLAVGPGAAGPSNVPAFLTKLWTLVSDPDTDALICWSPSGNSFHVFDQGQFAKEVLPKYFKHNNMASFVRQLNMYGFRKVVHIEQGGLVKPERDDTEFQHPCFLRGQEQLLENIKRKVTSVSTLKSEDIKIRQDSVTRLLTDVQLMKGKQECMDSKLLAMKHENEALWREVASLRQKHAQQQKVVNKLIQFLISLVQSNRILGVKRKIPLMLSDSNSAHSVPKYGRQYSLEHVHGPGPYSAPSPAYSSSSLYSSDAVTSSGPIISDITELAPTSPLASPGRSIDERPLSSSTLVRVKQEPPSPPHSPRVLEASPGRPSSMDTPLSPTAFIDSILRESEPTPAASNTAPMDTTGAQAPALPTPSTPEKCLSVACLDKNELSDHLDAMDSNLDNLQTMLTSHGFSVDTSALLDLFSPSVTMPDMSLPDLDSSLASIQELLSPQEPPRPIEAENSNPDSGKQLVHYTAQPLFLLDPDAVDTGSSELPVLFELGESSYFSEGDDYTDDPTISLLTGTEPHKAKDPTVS

H4 = assay: Luminescence Cell-Based Dose Response HTS to Identify Activators of 5'UTR Stem-Loop Driven Prion Protein mRNA Translation in H4 Neuroglioblastoma Cells. [Related pubchem assays: 1829 (Project Summary), 1814 (Primary HTS)]; assay type: functional; settings: Homo sapiens
[7] = molecular target: T5, Carboxy-terminal domain RNA polymerase II polypeptide A small phosphatase 1 (Homo sapiens, UniProt Q9GZU7); assay: CTDSP1 inhibitors, concentration-response, biochemical, absorbance readout, ultra-high-throughput screen actives (AID 540297); assay type: functional
T5 sequence (Q9GZU7 whole entry): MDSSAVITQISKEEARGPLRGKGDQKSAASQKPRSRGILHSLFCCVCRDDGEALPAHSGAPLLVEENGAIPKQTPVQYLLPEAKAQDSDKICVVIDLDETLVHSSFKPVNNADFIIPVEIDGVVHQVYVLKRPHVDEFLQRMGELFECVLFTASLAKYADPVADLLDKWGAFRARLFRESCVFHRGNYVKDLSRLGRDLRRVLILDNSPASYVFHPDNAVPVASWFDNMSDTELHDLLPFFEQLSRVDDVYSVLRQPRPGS

Leucine aminopeptidase = molecular target: T6, Leucine aminopeptidase (Plasmodium falciparum 3D7, UniProt Q8IL11); assay: P. falciparum M17LAP inhibitors, primary screen, biochemical, fluorogenic H-Leu-NHMec substrate, 1536-well (AID 1619); assay type: functional
T6 sequence (Q8IL11 whole entry): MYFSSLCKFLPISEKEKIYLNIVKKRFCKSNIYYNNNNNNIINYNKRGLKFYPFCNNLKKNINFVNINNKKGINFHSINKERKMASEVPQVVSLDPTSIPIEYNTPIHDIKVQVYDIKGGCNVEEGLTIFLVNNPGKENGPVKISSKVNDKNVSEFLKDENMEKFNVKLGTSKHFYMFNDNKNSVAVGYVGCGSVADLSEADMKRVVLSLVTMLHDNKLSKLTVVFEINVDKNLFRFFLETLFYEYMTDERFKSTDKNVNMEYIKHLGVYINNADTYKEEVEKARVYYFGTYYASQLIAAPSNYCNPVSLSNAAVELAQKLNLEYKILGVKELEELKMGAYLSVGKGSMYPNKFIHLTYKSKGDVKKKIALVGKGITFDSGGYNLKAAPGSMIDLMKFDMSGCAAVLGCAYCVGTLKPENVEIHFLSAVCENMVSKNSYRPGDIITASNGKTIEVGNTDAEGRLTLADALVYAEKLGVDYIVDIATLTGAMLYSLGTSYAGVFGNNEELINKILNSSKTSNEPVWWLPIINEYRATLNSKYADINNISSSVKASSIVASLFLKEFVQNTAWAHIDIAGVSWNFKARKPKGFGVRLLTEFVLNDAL

Chain of Cytochrome P450 3A4 (P08684 whole entry): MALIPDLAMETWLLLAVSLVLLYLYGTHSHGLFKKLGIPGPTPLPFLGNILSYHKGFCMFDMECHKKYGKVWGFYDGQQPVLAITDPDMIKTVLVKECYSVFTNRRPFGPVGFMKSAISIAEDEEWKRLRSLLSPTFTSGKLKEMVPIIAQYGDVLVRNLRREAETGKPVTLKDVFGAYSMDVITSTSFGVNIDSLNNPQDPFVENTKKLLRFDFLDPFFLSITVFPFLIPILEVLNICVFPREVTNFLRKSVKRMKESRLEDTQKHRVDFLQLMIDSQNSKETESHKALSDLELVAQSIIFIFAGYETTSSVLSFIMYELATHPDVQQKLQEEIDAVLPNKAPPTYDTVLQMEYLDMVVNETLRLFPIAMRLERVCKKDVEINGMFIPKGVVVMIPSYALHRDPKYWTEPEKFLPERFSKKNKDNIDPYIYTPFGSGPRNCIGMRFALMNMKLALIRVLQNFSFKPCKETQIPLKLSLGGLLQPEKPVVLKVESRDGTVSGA
Chain of Phospholipase A2 (P04054 whole entry): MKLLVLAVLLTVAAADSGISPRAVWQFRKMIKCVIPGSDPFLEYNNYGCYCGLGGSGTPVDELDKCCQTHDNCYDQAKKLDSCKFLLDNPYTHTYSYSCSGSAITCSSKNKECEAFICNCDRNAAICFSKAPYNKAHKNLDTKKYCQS
Chain of Cytochrome P450 2C9 (P11712 whole entry): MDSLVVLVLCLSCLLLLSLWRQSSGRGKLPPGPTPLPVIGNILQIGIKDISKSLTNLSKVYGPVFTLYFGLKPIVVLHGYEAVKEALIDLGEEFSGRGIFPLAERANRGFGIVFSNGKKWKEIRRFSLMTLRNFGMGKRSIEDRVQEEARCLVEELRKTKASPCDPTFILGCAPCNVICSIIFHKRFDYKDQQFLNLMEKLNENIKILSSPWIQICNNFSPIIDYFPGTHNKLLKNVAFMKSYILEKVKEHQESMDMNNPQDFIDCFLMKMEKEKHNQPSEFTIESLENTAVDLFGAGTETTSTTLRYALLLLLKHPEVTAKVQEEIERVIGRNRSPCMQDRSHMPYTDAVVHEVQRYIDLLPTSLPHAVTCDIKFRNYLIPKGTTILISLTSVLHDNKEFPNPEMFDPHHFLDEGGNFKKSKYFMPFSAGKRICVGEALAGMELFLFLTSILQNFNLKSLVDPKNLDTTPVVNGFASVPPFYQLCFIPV
Chain of Cytochrome P450 2C19 (P33261 whole entry): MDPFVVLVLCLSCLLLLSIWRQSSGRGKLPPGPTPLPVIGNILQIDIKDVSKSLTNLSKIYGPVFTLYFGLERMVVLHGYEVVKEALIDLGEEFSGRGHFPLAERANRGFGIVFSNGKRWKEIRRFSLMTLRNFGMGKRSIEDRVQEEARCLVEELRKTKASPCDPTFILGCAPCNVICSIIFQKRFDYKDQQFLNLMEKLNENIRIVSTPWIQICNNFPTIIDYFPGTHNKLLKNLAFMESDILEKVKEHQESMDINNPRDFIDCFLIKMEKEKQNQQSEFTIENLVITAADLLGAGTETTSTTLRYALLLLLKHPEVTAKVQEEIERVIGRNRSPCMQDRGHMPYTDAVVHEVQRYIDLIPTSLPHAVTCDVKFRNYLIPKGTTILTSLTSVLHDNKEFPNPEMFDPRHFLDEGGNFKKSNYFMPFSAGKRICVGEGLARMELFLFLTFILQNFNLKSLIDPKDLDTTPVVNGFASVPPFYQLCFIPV

Q: For `O=C(/C=C/c1ccccc1)Nc1cccnc1Oc1ccccc1F`, which AC50 [1] is on record?
A: The AC50 was 11.1 µM (active).

Q: With `CC(=O)Oc1ccc(C(=O)Cc2ccccn2)c(O)c1` as the compound, how does the AC50 (Escherichia coli) read?
A: The AC50 was 27.9 µM (active).

Q: With `C=CCN1CCc2c(cc(O)c(O)c2Cl)[C@H](c2ccccc2)C1` as the compound, how does the AC50 (Cytochrome P450 1A2) read?
A: Its AC50 is 20 µM (inconclusive).

Q: And the AC50 (Cytochrome P450 3A4)?
A: The AC50 was “inconclusive”.

Q: What about the AC50 (Cytochrome P450 2C9) of the same compound?
A: The AC50 was 31.6 µM (inconclusive).

Q: Which AC50 (Cytochrome P450 3A4) does the source give for `COC(=O)Cc1cc(O)n2nc(C)c(-c3ccccc3)c2n1` here?
A: Its AC50 is “inconclusive”.

Q: For `O=C(Oc1c(-c2ccccc2)c(=O)n2c3c(cccc13)CC2)c1ccc(F)cc1`, which IC50 (Phospholipase A2) is on record?
A: Its IC50 is 10.9 µM (active).

Q: And the IC50 (Cysteine protease ATG4B)?
A: Its IC50 is 14.1 µM (active).

Q: For `CC(=O)O[C@H]1CC[C@@]2(C)[C@@H](CC[C@H]3[C@H]2CC(=O)[C@]2(C)[C@@H]3C[C@@H](N3CC3)[C@H]2C(C)=O)C1`, which AC50 (Cytochrome P450 1A2) is on record?
A: Its AC50 is 0.0398 µM (inconclusive).

Q: And the AC50 (Cytochrome P450 3A4)?
A: Its AC50 is “inconclusive”.

Q: And the AC50 (Cytochrome P450 2C19)?
A: The AC50 was “inconclusive”.

Q: For `COC(=O)C(C)Oc1cc(C)cc2oc(=O)c3c(c12)CCCC3` (stereo not given), which AC50 (Escherichia coli) is on record?
A: Its AC50 is 28.2 µM (active).

Q: With `O=C(c1ccccc1F)c1cn(Cc2ccccc2)c2ccccc12` as the compound, how does the AC50 (Cytochrome P450 3A4) read?
A: Its AC50 is “inconclusive”.

Q: And the AC50 (Cytochrome P450 2C9)?
A: Its AC50 is 35.5 µM (inconclusive).

Q: For `Cc1c(C(=O)N/N=C/c2ccc(Cl)cc2)[nH]c2ccc(Cl)cc12`, which EC50 (Streptokinase A) is on record?
A: The EC50 was > 150 µM (not active).

Q: And the EC50 [2]?
A: The EC50 was 2.61 µM (active).

Q: What about the EC50 (Streptococcus) of the same compound?
A: The EC50 was 10.9 µM (active).

Q: And the IC50 [3]?
A: The IC50 was > 80 µM (inactive).

Q: With `Cc1cccc(/C=N/NC(=O)c2cc(C3CC3)nc3ccccc23)n1` as the compound, how does the AC50 (Escherichia coli) read?
A: Its AC50 is 37.9 µM (active).

Q: Which results are given for `Cc1ccc(N2CN=c3s/c(=C\c4ccccn4)c(=O)n3C2)cc1`?
A: EC50 [4]: 29.5 µM (active); EC50 [5]: > 120 µM (not active); EC50 [6]: > 195 µM (not active); EC50 (H4): > 120 µM (not active); AC50 [1]: 3.58 µM (active)

Q: For `Oc1ccc(/C=N/n2c(S)nnc2-c2ccccc2)cc1Br`, which AC50 [1] is on record?
A: Its AC50 is 11.8 µM (active).

Q: Which IC50 [7] does the source give for `O=C(O)COc1ccccc1/C=C1\SC(=S)N(/N=C/c2ccccc2O)C1=O` here?
A: The IC50 was 8.53 µM (active).

Q: What about the IC50 (Phospholipase A2) of the same compound?
A: Its IC50 is 32.1 µM (inactive).

Q: What about the IC50 (Cysteine protease ATG4B) of the same compound?
A: The IC50 was 27.1 µM (inactive).

Q: And the IC50 (Leucine aminopeptidase)?
A: Its IC50 is 21.3 µM (active).

Q: Which AC50 [1] does the source give for `Oc1ccc(/C=N/n2c(-c3ccccc3)n[nH]c2=S)cc1` here?
A: Its AC50 is 4.2 µM (active).
